By Ki is commonly meant the dissociation constant of the complex between target and ligand, obtained from inhibition or displacement. In general, EC50 refers to the concentration that produces a half-maximal response. The low end stands for an effect from little substance, the high end for a need for much substance.

Series [1] concerns the target Serotonin 2 (5-HT2) receptor (Homo sapiens, UniProt P41595+P28223+P28335). Description: Binding affinity towards cloned human 5-hydroxytryptamine 2 receptor was determined. The class given is protein assay.
For series [2], the target named is T1, D(4) dopamine receptor (Homo sapiens, UniProt P21917).
T1 sequence (P21917 whole entry): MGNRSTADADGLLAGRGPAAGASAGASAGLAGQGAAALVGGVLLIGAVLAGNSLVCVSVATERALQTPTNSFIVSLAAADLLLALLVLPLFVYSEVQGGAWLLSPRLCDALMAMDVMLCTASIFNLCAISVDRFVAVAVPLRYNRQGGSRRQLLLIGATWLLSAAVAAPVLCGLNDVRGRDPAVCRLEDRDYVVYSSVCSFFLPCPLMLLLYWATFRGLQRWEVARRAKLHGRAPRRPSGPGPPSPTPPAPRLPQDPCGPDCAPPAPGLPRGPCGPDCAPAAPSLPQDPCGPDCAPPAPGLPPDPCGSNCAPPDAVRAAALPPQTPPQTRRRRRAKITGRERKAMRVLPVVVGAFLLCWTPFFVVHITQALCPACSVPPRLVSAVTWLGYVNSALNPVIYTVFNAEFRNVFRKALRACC
In words: Binding affinity to recombinant human dopamine receptor D4.

Series [3] is described as follows: mLogP was determined. To be noted: octanol/water; read-out: mLog P. The class given is physicochemical.
For series [4], the target named is T1, D(4) dopamine receptor. In words: Antagonistic activity against human Dopamine receptor D4.2 using [35S]GTP-gamma-S binding assay.
Series [5] deals with T2, 5-hydroxytryptamine receptor 1A (Homo sapiens, UniProt P08908).
T2 sequence (P08908 whole entry): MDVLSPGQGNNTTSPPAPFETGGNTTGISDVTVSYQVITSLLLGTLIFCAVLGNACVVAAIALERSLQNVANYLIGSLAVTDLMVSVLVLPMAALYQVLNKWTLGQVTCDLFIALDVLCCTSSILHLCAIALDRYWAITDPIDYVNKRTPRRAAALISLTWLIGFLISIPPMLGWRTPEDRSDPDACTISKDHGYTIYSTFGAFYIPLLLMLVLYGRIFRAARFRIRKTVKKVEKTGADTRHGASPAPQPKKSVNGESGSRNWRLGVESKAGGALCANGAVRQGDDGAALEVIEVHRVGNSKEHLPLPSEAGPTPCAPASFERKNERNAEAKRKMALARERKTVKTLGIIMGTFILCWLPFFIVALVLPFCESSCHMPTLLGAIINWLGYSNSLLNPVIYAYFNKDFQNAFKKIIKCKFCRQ
In words: Binding affinity towards cloned human 5-hydroxytryptamine 1A receptor was determined.

A further series deals with D(2) dopamine receptor (Homo sapiens, UniProt P14416). Description: Binding affinity towards cloned human Dopamine receptor D2 was determined.
A further series concerns the target D(1B) dopamine receptor (Homo sapiens, UniProt P21918). In words: Binding affinity towards cloned human Dopamine receptor D5 was determined.

Structures are written as SMILES. Where only a bound is given, the exact number is not on record here.

Chain of D(2) dopamine receptor (P14416 whole entry): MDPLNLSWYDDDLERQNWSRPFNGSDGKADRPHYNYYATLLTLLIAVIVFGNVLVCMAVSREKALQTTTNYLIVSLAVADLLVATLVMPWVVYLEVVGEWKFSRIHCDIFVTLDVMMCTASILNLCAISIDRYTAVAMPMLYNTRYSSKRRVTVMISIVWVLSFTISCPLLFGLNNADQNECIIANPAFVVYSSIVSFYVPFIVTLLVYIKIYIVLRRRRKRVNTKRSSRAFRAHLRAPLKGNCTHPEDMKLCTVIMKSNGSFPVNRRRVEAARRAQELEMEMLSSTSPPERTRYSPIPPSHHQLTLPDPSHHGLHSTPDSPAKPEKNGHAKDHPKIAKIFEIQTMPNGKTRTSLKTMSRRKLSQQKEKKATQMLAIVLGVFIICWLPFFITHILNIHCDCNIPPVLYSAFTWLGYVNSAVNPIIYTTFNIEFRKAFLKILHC
Chain of D(1B) dopamine receptor (P21918 whole entry): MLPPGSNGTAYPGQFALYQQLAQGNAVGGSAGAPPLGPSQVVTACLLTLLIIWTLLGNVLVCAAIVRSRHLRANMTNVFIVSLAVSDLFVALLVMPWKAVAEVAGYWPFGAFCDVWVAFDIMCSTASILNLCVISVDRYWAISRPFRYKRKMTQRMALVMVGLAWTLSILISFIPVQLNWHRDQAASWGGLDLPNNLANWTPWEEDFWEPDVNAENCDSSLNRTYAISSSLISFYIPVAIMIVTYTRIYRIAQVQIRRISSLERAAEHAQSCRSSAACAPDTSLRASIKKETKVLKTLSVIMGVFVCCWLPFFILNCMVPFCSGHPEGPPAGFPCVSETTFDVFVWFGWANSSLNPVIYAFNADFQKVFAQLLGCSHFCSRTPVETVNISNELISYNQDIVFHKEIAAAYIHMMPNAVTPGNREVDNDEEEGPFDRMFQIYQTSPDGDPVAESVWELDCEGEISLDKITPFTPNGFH

As for `Cc1sc(C)c2c1CCCc1c[nH]nc1-2`, the Ki in series [1] is 2087 nM; at D(4) dopamine receptor [2] it was 12 nM; in series [5], over 1000 nM; on D(2) dopamine receptor it was 2070 nM; at D(1B) dopamine receptor, over 10000 nM. The logP in series [3] came out at 2.48. The midpoint of the response on D(4) dopamine receptor [4], the EC50, lay at 9 nM.
